From paper PMC10855164, “Ligand-Based Design of Selective Peptidomimetic uPA and TMPRSS2 Inhibitors with Arg Bioisosteres” (International Journal of Molecular Sciences, 2024)

What follows are compounds tested against T1, matriptase (Homo sapiens, UniProt Q9Y5Y6) (assay: fluorometric enzyme inhibition assay, matriptase (Boc-Leu-Arg-Arg-AMC)). Conditions: from IC50 by Cheng-Prusoff; n.a. = not active, <80% inhibition at 20 µM.
T1 construct: catalytic domain of matriptase (uniport: Q9Y5Y6 aa 596–855); hexa-histidine (N); made in house; host or cells: Escherichia coli BL21 Gold (DE3)
T1 sequence (Q9Y5Y6 596-855): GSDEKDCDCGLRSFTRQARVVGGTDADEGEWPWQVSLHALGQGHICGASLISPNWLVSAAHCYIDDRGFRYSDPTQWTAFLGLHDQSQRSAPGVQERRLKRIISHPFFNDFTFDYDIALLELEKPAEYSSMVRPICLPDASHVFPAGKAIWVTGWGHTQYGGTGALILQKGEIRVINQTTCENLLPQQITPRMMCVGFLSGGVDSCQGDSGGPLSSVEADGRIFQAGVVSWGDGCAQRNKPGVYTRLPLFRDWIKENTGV
Format: biochemical
Protocol: (§1) The inhibitory activity of the synthesized compounds towards the respective main- and off-target proteases was measured via fluorometric and colorimetric assays. Thus, fluorogenic AMC- or colorimetric pNA-based substrates with a peptide sequence suitable for the tested protease were utilized (see Supplementary Figure S2). At first, the compounds were screened against […] proteases (uPA, TMPRSS2, matriptase, tPA, thrombin, factor Xa) at 20 µM, and a cut-off value of 80% inhibition at this concentration was set, for the differentiation between nonactive (n.a.) and active inhibitors. Due to the reversible inhibition mechanism of the ketobenzothiazole derivates, the IC50 values were determined with Graphpad Prism 9, and afterwards converted to the corresponding Ki values for an adequate comparison between the inhibitory activities of the compounds toward all tested proteases. The Ki values were calculated using the Cheng–Prusoff equation [43].
(§2) Fluorometric inhibition assays
(§3) The inhibitory activities of the compounds against the proteases were determined by enzyme inhibition assays with fluorogenic or colorimetry-based substrates. The fluorescence, caused by cleaved AMC from the fluorogenic substrates (uPA, matriptase, TMPRSS2, thrombin), was measured in white flat-bottom 96-well plates from Greiner Bio-One using a Tecan Infinite F200 Pro plate reader. The absorption, caused by cleaved pNA from colorimetric substrates (factor Xa and tPA), was measured in transparent flat-bottom 96-well plates from Greiner Bio-One using a Tecan Spark 10M plate reader. All measurements with the main-target proteases (uPA and TMRPSS2) were performed as triplicates and with the off-target proteases (matriptase, factor Xa, tPA, thrombin) as duplicates. The substrates and the compounds were prepared as stock solutions in DMSO. Each well contained a total volume of 200 µL, consisting of 185 µL buffer, 5 µL inhibitor in DMSO or pure DMSO as negative control, 5 µL substrate in DMSO and 5 µL enzyme solution in buffer. Dilution series were prepared for the determination of the inhibition constants. The fluorescence signal and absorbance were measured every 30 s for 10 min at 25 or 37 °C with the corresponding excitation/emission (λex = 380 nm / λem = 460 nm) and absorbance (λabs = 405 nm) wavelengths, depending on the targeted protease. IC50 values for the reversible inhibitors were calculated with Graphpad Prism 9 by fitting the remaining enzymatic activity to the four parameter IC50 equation with Y [%] as the residual enzyme activity , Ymax as the maximum value of the dose response curve at inhibitor concentrations [I] = 0 µM, Ymin as the minimum value at high inhibitor concentrations and s as the hill coefficient.[1] The fluorescence progress curves and sigmoidal dose-response curve for inhibition of uPa by compound 38 is shown exemplary in Figure S2. […]
(§4) Due to the dependence of the IC50 value on the substrate affinity and concentration, the Ki values were calculated with the Cheng-Prusoff equation, using the final substrate concentration [S] and the Michaelis-Menten constant KM, (2) for appropriate comparison of the inhibitory activities to the other enzymes and inhibitors.[1]
(§5) KM values were determined by fitting to the Michaelis-Menten equation using Graphpad Prism 9 with v [ΔF/min] as the substrate hydrolysis rate, vmax as the maximum slope of the dose-response curve, and the substrate [S] concentration.[1] The different substrates were serially diluted in DMSO. The measurement was done in analogy to the determination of the inhibitory activity, but with 5 µL pure DMSO instead of inhibitor solution. […]
(§6) The following buffers and substrates were used for the respective assays: uPA (50 mM Tris HCl pH = 7.9, 150 mM […]
(§7) TMPRSS2 (25 mM Tris HCl pH = 8.0, 150 mM NaCl, 5 mM CaCl2, 0.001% TX-100, 100 µM Boc-Gln-Ala-Arg-AMC (KM: 68.63 ± 6.64 µM), 25 °C, 3 nM TMPRSS2)[3]; matriptase (50 mM Tris HCl pH = 8.0, 150 mM NaCl, 5 mM CaCl2, […]

Going from `CC(=O)N[C@@H](CC(N)=O)C(=O)N[C@@H](CC1CCCCC1)C(=O)N[C@@H](Cc1ccc(NC(=N)N)cc1)C(=O)c1nc2ccccc2s1` [Compound 32] to `CC(=O)N[C@@H](CC(N)=O)C(=O)N[C@@H](Cc1ccccc1)C(=O)N[C@@H](Cc1ccc(NC(=N)N)cc1)C(=O)c1nc2ccccc2s1` [Compound 31], the Ki falls from 3330 ± 1140 nM to 252 ± 67 nM (13-fold). The second binds more tightly here.

First: CC(=O)N[C@@H](CC(N)=O)C(=O)N1CCC[C@H]1C(=O)N[C@@H](Cc1ccc(NC(=N)N)cc1)C(=O)c1nc2ccccc2s1 [Compound 30]
Second: CC(=O)N[C@@H](CC(N)=O)C(=O)N1CCC[C@H]1C(=O)N[C@@H](CC1CCC(NC(=N)N)CC1)C(=O)c1nc2ccccc2s1 (some centres unmarked) [Compound 39]
The Ki of the first is 20-fold lower: 60 ± 8 nM for the first, 1200 ± 181 nM for the second.

Same assay, conditions: quotient Ki matriptase / Ki TMPRSS2

Going from `CC(=O)N[C@@H](CC(N)=O)C(=O)N[C@@H](CC1CCCCC1)C(=O)N[C@@H](Cc1ccc(NC(=N)N)cc1)C(=O)c1nc2ccccc2s1` [Compound 32] to `CC(=O)N[C@@H](CC(N)=O)C(=O)N[C@@H](Cc1ccccc1)C(=O)N[C@@H](Cc1ccc(NC(=N)N)cc1)C(=O)c1nc2ccccc2s1` [Compound 31], the “Selectivity index [SI] Matriptase” value rises from 98 to 630.

Going from `CC(=O)N[C@@H](CC(N)=O)C(=O)N1CCC[C@H]1C(=O)N[C@@H](Cc1ccc(NC(=N)N)cc1)C(=O)c1nc2ccccc2s1` [Compound 30] to `CC(=O)N[C@@H](CC(N)=O)C(=O)N1CCC[C@H]1C(=O)N[C@@H](CC1CCC(NC(=N)N)CC1)C(=O)c1nc2ccccc2s1` (some centres unmarked) [Compound 39], the “Selectivity index [SI] Matriptase” value rises from 12 to 27.

What follows are compounds tested against T2, uPA (Homo sapiens, UniProt P00749) (assay: fluorometric enzyme inhibition assay, uPA (Z-Gly-Gly-Arg-AMC)). Conditions: from IC50 by Cheng-Prusoff; n.a. = not active, <80% inhibition at 20 µM.
T2 construct: purchased Sigma Aldrich
Format: biochemical
Protocol: as §1, §2
The inhibitory activities of the compounds against the proteases were determined by enzyme inhibition assays with fluorogenic or colorimetry-based substrates. The fluorescence, caused by cleaved AMC from the fluorogenic substrates (uPA, matriptase, TMPRSS2, thrombin), was measured in white flat-bottom 96-well plates from Greiner Bio-One using a Tecan Infinite F200 Pro plate reader. The absorption, caused by cleaved pNA from colorimetric substrates (factor Xa and tPA), was measured in transparent flat-bottom 96-well plates from Greiner Bio-One using a Tecan Spark 10M plate reader. All measurements with the main-target proteases (uPA and TMRPSS2) were performed as triplicates and with the off-target proteases (matriptase, factor Xa, tPA, thrombin) as duplicates. The substrates and the compounds were prepared as stock solutions in DMSO. Each well contained a total volume of 200 µL, consisting of 185 µL buffer, 5 µL inhibitor in DMSO or pure DMSO as negative control, 5 µL substrate in DMSO and 5 µL enzyme solution in buffer. Dilution series were prepared for the determination of the inhibition constants. The fluorescence signal and absorbance were measured every 30 s for 10 min at 25 or 37 °C with the corresponding excitation/emission (λex = 380 nm / λem = 460 nm) and absorbance (λabs = 405 nm) wavelengths, depending on the targeted protease. IC50 values for the reversible inhibitors were calculated with Graphpad Prism 9 by fitting the remaining enzymatic activity to the four parameter IC50 equation with Y [%] as the residual enzyme activity , Ymax as the maximum value of the dose response curve at inhibitor concentrations [I] = 0 µM, Ymin as the minimum value at high inhibitor concentrations and s as the hill coefficient.[1] The fluorescence progress curves and sigmoidal dose-response curve for inhibition of uPa by compound 38 is shown exemplary in Figure S2.
Figure S2: (left) Fluorescence progress curves for inhibition of uPa by cpd. 38. (right) Plot showing the respective IC50 value […]
as §4
as §5, with “solution. The fluorescence progress curves and Michaelis-Menten curve of the specific substrate of uPA is shown exemplarily” for “solution.”
Figure S3: (left) Fluorescence progress curves of cleavage of Z-Gly-Gly-Arg-AMC by uPA. (right) Michaelis-Menten curve […]

`CC(=O)N[C@@H](CC(N)=O)C(=O)N[C@@H](CC1CCCCC1)C(=O)N[C@@H](Cc1ccc(NC(=N)N)cc1)C(=O)c1nc2ccccc2s1` [Compound 32] and `CC(=O)N[C@@H](CC(N)=O)C(=O)N[C@@H](Cc1ccccc1)C(=O)N[C@@H](Cc1ccc(NC(=N)N)cc1)C(=O)c1nc2ccccc2s1` [Compound 31] are within 1.5-fold of each other in Ki: 2690 ± 217 nM for the first, 3570 ± 421 nM for the second.

`CC(=O)NCC(=O)NC(C(=O)NC(C)C(=O)NC(CCCNC(=N)N)C(=O)c1nc2c(s1)CCCC2)C(C)O` (centres unmarked) [Compound 15] and `CC(=O)NCC(=O)NC(C(=O)NC(C)C(=O)NC(CCCNC(=N)N)C(=O)c1nc2ccc(F)cc2s1)C(C)O` (centres unmarked) [Compound 14b] are within error of each other in Ki: 435 ± 33 nM for the first, 388 ± 95 nM for the second.

Compared with `CC(=O)N[C@@H](CC(N)=O)C(=O)N1CCC[C@H]1C(=O)N[C@@H](Cc1ccc(NC(=N)N)cc1)C(=O)c1nc2ccccc2s1` [Compound 30], `CC(=O)N[C@@H](CC(N)=O)C(=O)N1CCC[C@H]1C(=O)N[C@@H](CC1CCC(NC(=N)N)CC1)C(=O)c1nc2ccccc2s1` (some centres unmarked) [Compound 39] is 2-fold higher in Ki: 479 ± 17 nM for the first, 936 ± 100 nM for the second.

`COc1ccc2nc(C(=O)C(CCCNC(=N)N)NC(=O)C(C)NC(=O)C(NC(=O)CNC(C)=O)C(C)O)sc2c1` (centres unmarked) [Compound 14e] was tested, and the Ki was 178 ± 19 nM.

Same assay, conditions: quotient Ki uPA / Ki TMPRSS2

First: CC(=O)N[C@@H](CC(N)=O)C(=O)N[C@@H](CC1CCCCC1)C(=O)N[C@@H](Cc1ccc(NC(=N)N)cc1)C(=O)c1nc2ccccc2s1 [Compound 32]
Second: CC(=O)N[C@@H](CC(N)=O)C(=O)N1CCC[C@H]1C(=O)N[C@@H](Cc1ccc(NC(=N)N)cc1)C(=O)c1nc2ccccc2s1 [Compound 30]
The “Selectivity index [SI] uPA” value of the first is lower: 79 for the first, 96 for the second.

`CC(=O)N[C@@H](CC(N)=O)C(=O)N1CCC[C@H]1C(=O)N[C@@H](CC1CCC(NC(=N)N)CC1)C(=O)c1nc2ccccc2s1` (some centres unmarked) [Compound 39] was tested, and the “Selectivity index [SI] uPA” value was 21.

In the case of `CC(=O)N[C@@H](CC(N)=O)C(=O)N[C@@H](Cc1ccccc1)C(=O)N[C@@H](Cc1ccc(NC(=N)N)cc1)C(=O)c1nc2ccccc2s1` [Compound 31], the “Selectivity index [SI] uPA” value is reported as over 5000.

The compounds below were run against T3, TMPRSS2 (Homo sapiens, UniProt O15393) (assay: fluorometric enzyme inhibition assay, TMPRSS2 (Boc-Gln-Ala-Arg-AMC)). Conditions: from IC50 by Cheng-Prusoff; n.a. = not active, <80% inhibition at 20 µM.
T3 construct: purchased Cusabio
T3 sequence (O15393 whole entry): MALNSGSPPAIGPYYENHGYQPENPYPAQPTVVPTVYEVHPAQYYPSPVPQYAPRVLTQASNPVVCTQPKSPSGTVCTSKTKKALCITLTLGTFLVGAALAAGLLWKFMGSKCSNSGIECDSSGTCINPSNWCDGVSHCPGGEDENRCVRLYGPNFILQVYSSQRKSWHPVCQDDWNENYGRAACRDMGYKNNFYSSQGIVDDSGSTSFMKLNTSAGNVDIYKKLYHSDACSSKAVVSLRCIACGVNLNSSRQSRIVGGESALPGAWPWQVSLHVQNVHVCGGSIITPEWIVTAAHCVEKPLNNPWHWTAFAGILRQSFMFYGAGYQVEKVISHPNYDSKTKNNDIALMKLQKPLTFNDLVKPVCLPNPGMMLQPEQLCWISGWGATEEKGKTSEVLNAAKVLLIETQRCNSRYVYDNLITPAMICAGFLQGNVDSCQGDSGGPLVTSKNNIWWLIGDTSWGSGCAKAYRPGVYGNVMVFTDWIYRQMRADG
Format: biochemical
Protocol: as §1, §2, §3, §4, §5, §6, §7

First: CC(=O)N[C@@H](CC(N)=O)C(=O)N[C@@H](CC1CCCCC1)C(=O)N[C@@H](Cc1ccc(NC(=N)N)cc1)C(=O)c1nc2ccccc2s1 [Compound 32]
Second: CC(=O)N[C@@H](CC(N)=O)C(=O)N[C@@H](Cc1ccccc1)C(=O)N[C@@H](Cc1ccc(NC(=N)N)cc1)C(=O)c1nc2ccccc2s1 [Compound 31]
The Ki of the first is 85-fold higher: 34 ± 4 nM for the first, 0.4 ± 0.1 nM for the second.

Going from `CC(=O)N[C@@H](CC(N)=O)C(=O)N1CCC[C@H]1C(=O)N[C@@H](Cc1ccc(NC(=N)N)cc1)C(=O)c1nc2ccccc2s1` [Compound 30] to `CC(=O)N[C@@H](CC(N)=O)C(=O)N1CCC[C@H]1C(=O)N[C@@H](CC1CCC(NC(=N)N)CC1)C(=O)c1nc2ccccc2s1` (some centres unmarked) [Compound 39], the Ki rises from 5 ± 1 nM to 44 ± 7 nM (8.8-fold).
